Assay [1] relates to monkey kidney epithelial cells of the BSC-1 line. Briefly: Growth-promoting (mitogenic) activity: number of cells in BSC-1 cultures counted four days after addition. It is filed as cell-based, African green monkey. As to conditions: for EC50: read-out: Growth-Stimulation K½; for stimulation of growth (increase in cell number compared to control at four days): agent alone at maximal mitogenic concentration (14-Ser 0.5 μg/ml; EGF, IGF-I 50 ng/ml; acidic FGF 100 pg/ml; basic FGF 1,000 pg/ml; vasopressin 75 pg/ml; K 10.4 mM; Na 180 mM).

Assay [2] concerns BSC-1 cells. Briefly: Inhibition of WGF and WGF-derived peptide mitogenesis in BSC-1 cells. As to conditions: TGF-β2 6 ng/ml; exogenous 14-Ser up to 5 μg/ml. The class given is cell-based, African green monkey. From the text:
In these studies the pentamers, PQGNH (SEQ ID NO: 36) or YPQGN (SEQ ID NO: 3) were synthesized, purified by HPLC and then assayed for growth-promoting activity. […] Because the pentamers are not mitogenic, when they bind to the site, growth is not observed. After pentamers are bound to the site, the pentamers appear to prevent the hexapeptide from gaining access to the membrane.
Transforming growth factor (TGF)-β2 is an autocrine growth inhibitor secreted by BSC-1 cells that limits proliferation in culture. Exogenous TGF-β2 was added to the culture medium to determine its capacity to inhibit the growth-promoting effect of 14-Ser. TGF-β2 at a concentration of 1 ng/ml was sufficient to abolish the 25% stimulation of growth induced by 14-Ser. At a TGF-β2 concentration of 2 ng/ml, growth was inhibited by 30% in the presence or absence of 14-Ser; at 10 ng/ml, inhibition was 60%.
Because TGF-β2 inhibits proliferation induced by diverse mitogens, a more specific inhibitor was sought. […] Cells were preincubated for 30 minutes with the pentapeptide YPQGN (SEQ ID NO: 3). The culture medium was then aspirated, the monolayer was rinsed, fresh medium was added, and the number of cells counted 4 days later. Preincubation of cells with YPQGN (SEQ ID NO: 3) inhibited the mitogenic effect of the 6-amino acid peptide.

Experimental findings from patent US7550438B2, “Methods for production of growth-promoting proteins and peptides for kidney epithelial cells” (The University of Chicago, priority 1997, dated 2009) are described below.

“And” between values parts separate entries of the source, which are not always exact repeats. Equal values may be shown once. Read-outs that look alike come from different tables or passages of the source.

For the sequence AQPYPQGNHEASYG, the EC50 in assay [1] (+ heparin (1 μg/ml)) came to 40 nM; in assay [1] (+ keratan sulfate (2 μg/ml for 5 minutes prior to peptide, b158; 10 μg/ml)) it was 67 nM; in assay [1] (peptide alone, BSC-1 cells, 4 days in culture), 126 nM. Besides, the “stimulation of growth (increase in cell number compared to control at four days)” value is 25% in assay [1]; 25-30% in assay [1] (listed as 14-Ser Peptide); 25-30% and 25% in assay [1] (listed as 14-Ser peptide). In assay [2], the “reversal of TGF-β2 growth inhibition” value is reported as “did not reverse growth inhibition”.
